Usually IC50 stands for the point on the concentration scale where inhibition reaches its midpoint.

The values below come from ChEMBL document CHEMBL5126666, “Cladoxanthones A and B, Xanthone-Derived Metabolites with a Spiro[cyclopentane-1,2'-[3,9a]ethanoxanthene]-2,4',9',11'-tetraone Skeleton from a Cladosporium sp” (J Nat Prod, 2022).

Holding throughout (assay type): functional, cell-based
The test system of experiment [1] is Huh-7. Kind of experiment: Antiproliferative activity against human Huh-7 cells assessed as reduction in cell viability after 24 hrs by MTT assay. The conditions noted are these: Huh-7, 24 h. (In general: Formazan colour is commonly taken as a measure of viable cells.)
Experiment [2] deals with 4T1. Kind of experiment: Antiproliferative activity against mouse 4T1 cells assessed as reduction in cell viability after 24 hrs by MTT assay. The conditions noted are these: 4T1, 24 h.
For experiment [3], the system named is J82. The experiment can be described thus: Antiproliferative activity against human J82 cells assessed as reduction in cell viability after 24 hrs by MTT assay. As to conditions: J82, 24 h.
The nature of experiment [4]: Antiproliferative activity against mouse MB49 cells assessed as reduction in cell viability after 24 hrs by MTT assay. The conditions noted are these: MB49, 24 h.

With `CC1=CC(=O)[C@]2(O)C(=O)c3c(ccc(-c4ccc5c(c4O)C(=O)[C@@]46C[C@@]7(C(=O)CC[C@@H]7C)[C@@](C)(CC4=O)C(=O)[C@]6(C)O5)c3O)O[C@@]2(C)[C@H]1O`, the concentration for half-maximal inhibition (IC50) is 46.4 µM in experiment [1], 27.5 µM in experiment [2], 24.7 µM in experiment [3] and 41.7 µM in experiment [4].
In the same order, the values of `C[C@H]1CCC(=O)[C@@]12C[C@]13C(=O)C[C@@]2(C)C(=O)[C@]1(C)Oc1cccc(O)c1C3=O` are 24.3 µM, 38.7 µM, 25 µM and 13.9 µM.
